Experiment: Tissue distribution study by measurement of radioactivity across whole-body sections
Format: in vivo, male Sprague-Dawley rats
Conditions: for tissue distribution of radioactivity: target organs/tissues: labelled molecule, rat whole-body sections; for radioactivity bound by the kidney (elimination organ): first minutes following the injection
Description: Pharmacokinetic Study: Tissue Distribution Study
This study was carried out with molecules labelled with ^14C. The tissue distribution study was carried out by direct measurement of the radioactivity across whole-body sections in accordance with the following method: male Sprague-Dawley rats were administered intravenously or orally with a dose of the labelled molecule. Then, at times ranging from 5 minutes to 24 hours after the administration, the animals were sacrificed by ether inhalation and frozen in liquid nitrogen.
Sections were then prepared using a cryomicrotome and, after desiccation, the distribution of radioactivity was measured using an image analyser.

Compound | affinity for cartilage (administration of the labelled molecule by the oral route) | time of maximum binding to cartilage (after injection) [min] | affinity of cartilage versus surrounding tissues (after injection of labelled molecule) | tissue distribution of radioactivity: target organs/tissues (after injection) | radioactivity bound by the kidney (elimination organ)
CN1C(C(=O)NCCC[N+](C)(C)C)=C(O)c2ccccc2S1(=O)=O.[I-] [Example 6, {3-[(4-Hydroxy-2-methyl-1,1-dioxide-2H-1,2-benzothiazin-3-yl)-carboxamido]propyl}trimethylammonium iodide] | very high affinity for cartilage | 5 | cartilage exhibits a far greater affinity than the surrounding tissues | – | –
N[C@H]1C(O)O[C@H](CO)[C@@H](O)[C@@H]1O (some centres unmarked) [glucosamine, reference compound] | – | – | – | the liver is the main target organ | –
C[N+](C)(C)CC(=O)N[C@H]1C(O)O[C@H](CO)[C@@H](O)[C@@H]1O.[Cl-] (stereo partly drawn) [Example 4, 2-(N,N,N-trimethylammonioacetamido)-2-deoxy-α,β-D-glucopyranose chloride] | – | – | – | cartilage, and to a lesser degree skin, are the only targets | binds significant amounts of radioactivity
O=C(C[n+]1ccccc1)N[C@H]1C(O)O[C@H](CO)[C@@H](O)[C@@H]1O.[Cl-] (stereo partly drawn) [Example 5, 2-(Pyridinioacetamido)-2-deoxy-α,β-D-glucopyranose chloride] | – | – | – | cartilage, and to a lesser degree skin, are the only targets | binds significant amounts of radioactivity

— US7008613B2, “Quaternary ammonium compounds” (Les Laboratoires Servier, priority 1999, dated 2006)
